Test results as given in ChEMBL document CHEMBL1132854, “Structure-based design of ketone-containing, tripeptidyl human rhinovirus 3C protease inhibitors” (Bioorg Med Chem Lett, 2000).
Square brackets hold non-standard residues; d marks the D form. Peptide text beside a SMILES is read from it. * marks the point of attachment. Cbz = O=C(OCc1ccccc1)*; Dap = NC[C@H](N)C(=O)O

How the values were obtained:
Human rhinovirus sp. [1] = experiment: Compound was evaluated for the inhibition of human rhinovirus 3C protease (3CP); type: functional, organism-based
Human rhinovirus sp. [2] = experiment: Compound was evaluated for in vitro cytotoxic concentration against HRV serotype-14 (HRV-14); type: functional
Human rhinovirus sp. [3] = experiment: Compound was evaluated for in vitro effective concentration against HRV serotype-14 (HRV-14); type: functional, organism-based
Human rhinovirus sp. [4] = experiment: Compound was evaluated for in vitro cytotoxic concentration against HRV serotype-14 (HRV-10); type: functional
Human rhinovirus sp. [5] = experiment: Compound was evaluated for in vitro cytotoxic concentration against HRV serotype-14 (HRV-1A); type: functional
Human rhinovirus sp. [6] = experiment: Compound was evaluated for in vitro effective concentration against HRV serotype-14 (HRV-10); type: functional, organism-based
Human rhinovirus sp. [7] = experiment: Compound was evaluated for in vitro effective concentration against HRV serotype-14 (HRV-1A); type: functional, organism-based
Human rhinovirus sp. [8] = experiment: Compound was evaluated for the inhibition of human rhinovirus 3C protease (3CP); No inhibition; type: functional, organism-based

| SMILES | EC50 (Human rhinovirus sp. [3]) [µM] | EC50 (Human rhinovirus sp. [6]) [µM] | EC50 (Human rhinovirus sp. [7]) [µM] | Ki (Human rhinovirus sp. [1]) [µM] | CC50 (Human rhinovirus sp. [2]) [µM] | CC50 (Human rhinovirus sp. [4]) [µM] | CC50 (Human rhinovirus sp. [5]) [µM] | Ki (Human rhinovirus sp. [8]) |
| --- | --- | --- | --- | --- | --- | --- | --- | --- |
| CC(=O)NC[C@H](NC(=O)[C@H](Cc1ccccc1)NC(=O)[C@H](CC(C)C)NC(=O)OCc1ccccc1)C(=O)c1nc2ccccc2s1 | > 25 |  |  | 1.7 | 25 |  |  |  |
| CC(C)C[C@H](NC(=O)OCc1ccccc1)C(=O)N[C@@H](Cc1ccccc1)C(=O)N[C@@H](CCC(N)=O)C(=O)c1nc2ccccc2s1 | 17 |  |  | 3.5 | > 100 |  |  |  |
| Cc1cc(C(=O)N[C@H](C(=O)N[C@@H](Cc2ccc(F)cc2)C(=O)N[C@@H](C[C@@H]2CCNC2=O)C(=O)c2nc3ccccc3s2)C(C)C)no1 | 0.34 | 0.25 | 0.34 | 0.0045 | 250 | 250 | 250 |  |
| CC(C)C[C@H](NC(=O)OCc1ccccc1)C(=O)N[C@@H](Cc1ccccc1)C(=O)N[C@@H](C[C@@H]1CCNC1=O)C(=O)c1ccccc1 | > 10 |  |  | 3.2 | > 10 |  |  |  |
| CC(C)C[C@H](NC(=O)OCc1ccccc1)C(=O)N[C@@H](Cc1ccccc1)C(=O)N[C@@H](CCC(N)=O)C(O)c1nc2ccccc2s1 (stereo partly specified) | 32 |  |  |  | 80 |  |  | Not Active |
| CC(C)C[C@H](NC(=O)OCc1ccccc1)C(=O)N[C@@H](Cc1ccccc1)C(=O)N[C@@H](C[C@@H]1CCNC1=O)C(=O)c1nccs1 | 7.9 |  |  | 0.7 | 240 |  |  |  |
| CC(=O)NC[C@@H](C=O)NC(=O)[C@H](Cc1ccccc1)NC(=O)[C@H](CC(C)C)NC(=O)OCc1ccccc1 (Cbz-Leu-Phe-[Dap](Ac)-aldehyde) | 2.4 |  |  | 0.006 |  |  |  |  |
| CC(C)C[C@H](NC(=O)OCc1ccccc1)C(=O)N[C@@H](Cc1ccccc1)C(=O)N[C@@H](C[C@@H]1CCNC1=O)C(=O)c1ccccn1 | 4 |  |  | 0.17 | 200 |  |  |  |

Now from value to compound, other results behind:

| EC50 (Human rhinovirus sp. [3]) [µM] | EC50 (Human rhinovirus sp. [6]) [µM] | EC50 (Human rhinovirus sp. [7]) [µM] | SMILES | Ki (Human rhinovirus sp. [1]) [µM] | CC50 (Human rhinovirus sp. [2]) [µM] | CC50 (Human rhinovirus sp. [4]) [µM] | CC50 (Human rhinovirus sp. [5]) [µM] | Ki (Human rhinovirus sp. [8]) |
| --- | --- | --- | --- | --- | --- | --- | --- | --- |
| 7.9 |  |  | CC(C)C[C@H](NC(=O)OCc1ccccc1)C(=O)N[C@@H](Cc1ccccc1)C(=O)N[C@@H](C[C@@H]1CCNC1=O)C(O)c1nc2ccccc2s1 (stereo partly specified) | 34 | 63 |  |  |  |
| 3.2 |  |  | CC(C)CC(NC(=O)OCc1ccccc1)C(=O)N[C@@H](Cc1ccccc1)C(=O)NC(CC1CCNC1=O)C(=O)c1nc2ccccc2s1 (stereo partly specified) | 0.065 | > 320 |  |  |  |
| > 10 |  |  | CC(C)C[C@H](NC(=O)OCc1ccccc1)C(=O)N[C@@H](Cc1ccccc1)C(=O)N[C@@H](C[C@@H]1CCNC1=O)C(=O)c1cc2ccccc2s1 | 4.7 | > 10 |  |  |  |
